# Results as given in patent US10689343B2, “Inhibitors of tryptophan 2,3-dioxygenase” (NETHERLANDS TRANSLATIONAL RESEARCH CENTER B.V., priority 2016, dated 2020).
# Where “and” joins values, the source holds several entries; their conditions need not be identical. Equal values may be shown once. Read-outs that look alike come from different tables or passages of the source.
# Assays:
# [1] = target: T1, TDO in SW48 colorectal carcinoma cells (Homo sapiens, UniProt P48775); experiment: Cell-based assay for TDO in SW48 colorectal carcinoma cells (NFK GreenScreen); settings: 18 hours with L-tryptophan
# T1 construct: Endogenous expression of TDO has been determined in a variety of cancer cell lines; host or cells: SW48 colorectal carcinoma cells
# Experimental: The biological activity of TDO inhibitors can be measured by applying above detection methods to cells that are treated with test compound. Endogenous expression of TDO has been determined in a variety of cancer cell lines (Pilotte et al.; Seegers, et al.), or TDO can be expressed in cells that lack endogenous TDO by transfection of an expression vector containing TDO cDNA. […] A preferred assay is the cell-based NFK GreenScreen™ assay (Seegers et al, supra), which measures the cellular inhibitory activity of compounds on TDO. […] No. V9920). Cell-Based Assay for TDO The NFK GreenScreen™ assay technology was also used to determine the inhibitory activity of compounds on TDO in SW48 colorectal carcinoma cells (Seegers, N., et al., J. Biol. Screen. 19: 1266; 2014). […] Compounds were dissolved in DMSO and diluted in RPMI 1640. Final DMSO concentration in the assay was 0.4% (v/v). Eight thousand cells per well in 40 μl were seeded in a black 384-well tissue plate (cat. No. 781086; […] To determine NFK levels, 12 μl NFK Green™ (NTRC, Oss, The Netherlands) was added to each well, and the plate was sealed and incubated for 4 hours at 37° C. Fluorescence was measured on an EnVision multimode reader (Perkin Elmer, Waltham, Mass., USA).
# CYP3A4 = CYP3A4 (Homo sapiens, UniProt P08684); experiment: P450-Glo CYP3A4 luciferin isopropylacetal (Luc-IP) assay
# CYP2D6 = CYP2D6 (Homo sapiens, UniProt P10635); experiment: P450-Glo CYP2D6 Luc-IP assay
# Recombinant TDO = target: T2, Recombinant TDO (Homo sapiens, UniProt P48775); experiment: Biochemical assay for TDO (NFK GreenScreen); settings: 50 nM TDO, 200 μM L-tryptophan
# T2 construct: Recombinant TDO (Seegers, N., et al.) and all other assay components were diluted in TDO reaction buffer
# Summary of the method: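 Recombinant human TDO (50 nM) preincubated with compound 60 min at room temperature in 100 mM NaH2PO4 pH 7.0, 0.02% Tween-20, with ascorbic acid. Reaction then run 15 min with 200 μM L-tryptophan (final), 0.3% DMSO. NFK product detected by NFK Green fluorescence after 3 h at 37° C; IC50 derived.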
# CYP3A4, sequence (P08684 whole entry): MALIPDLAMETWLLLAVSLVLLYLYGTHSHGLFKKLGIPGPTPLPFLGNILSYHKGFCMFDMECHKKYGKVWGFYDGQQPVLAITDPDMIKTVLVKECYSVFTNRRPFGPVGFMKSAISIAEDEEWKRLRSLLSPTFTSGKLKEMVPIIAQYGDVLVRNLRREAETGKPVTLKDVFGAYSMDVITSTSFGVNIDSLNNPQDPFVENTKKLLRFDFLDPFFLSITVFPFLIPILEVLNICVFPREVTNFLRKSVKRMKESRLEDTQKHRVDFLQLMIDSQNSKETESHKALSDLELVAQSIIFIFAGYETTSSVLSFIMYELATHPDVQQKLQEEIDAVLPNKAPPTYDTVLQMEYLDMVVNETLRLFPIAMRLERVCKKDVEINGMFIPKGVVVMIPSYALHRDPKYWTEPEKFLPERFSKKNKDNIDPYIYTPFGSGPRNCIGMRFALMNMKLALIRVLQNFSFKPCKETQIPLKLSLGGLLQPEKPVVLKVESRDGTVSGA
# CYP2D6, sequence (P10635 whole entry): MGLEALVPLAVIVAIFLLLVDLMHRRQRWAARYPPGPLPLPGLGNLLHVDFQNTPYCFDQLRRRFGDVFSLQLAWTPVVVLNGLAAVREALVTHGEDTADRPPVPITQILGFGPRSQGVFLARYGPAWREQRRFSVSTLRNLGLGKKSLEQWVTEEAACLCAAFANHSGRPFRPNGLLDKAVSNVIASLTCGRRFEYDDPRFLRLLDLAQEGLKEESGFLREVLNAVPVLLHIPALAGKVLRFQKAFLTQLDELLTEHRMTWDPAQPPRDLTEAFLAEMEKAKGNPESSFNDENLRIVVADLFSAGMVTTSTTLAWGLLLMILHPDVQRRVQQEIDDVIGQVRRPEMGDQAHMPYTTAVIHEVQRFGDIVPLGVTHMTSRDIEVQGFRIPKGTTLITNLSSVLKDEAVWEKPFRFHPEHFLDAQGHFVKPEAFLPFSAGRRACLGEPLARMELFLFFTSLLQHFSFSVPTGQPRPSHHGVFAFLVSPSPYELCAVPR
# T1 sequence (P48775 whole entry): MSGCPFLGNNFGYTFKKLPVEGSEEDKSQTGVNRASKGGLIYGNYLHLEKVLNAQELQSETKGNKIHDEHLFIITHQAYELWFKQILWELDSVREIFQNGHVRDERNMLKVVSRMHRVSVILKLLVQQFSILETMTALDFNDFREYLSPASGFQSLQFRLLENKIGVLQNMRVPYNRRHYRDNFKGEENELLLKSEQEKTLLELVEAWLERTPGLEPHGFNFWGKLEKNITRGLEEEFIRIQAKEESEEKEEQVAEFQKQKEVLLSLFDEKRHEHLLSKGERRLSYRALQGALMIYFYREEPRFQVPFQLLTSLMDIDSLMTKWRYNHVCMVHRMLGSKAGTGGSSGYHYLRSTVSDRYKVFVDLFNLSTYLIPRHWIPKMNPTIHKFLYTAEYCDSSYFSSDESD
# T2 sequence (P48775 whole entry): as above
IC50 (CYP3A4) [nM],IC50 (CYP2D6) [nM],IC50 (Recombinant TDO) [nM],IC50 ([1]; read-out: IC50 on TDO in cells),SMILES,IC50 ([1]; IC50 on TDO in cells)
5000 to 10000,> 10000,< 1000,≤ 500 nM and 200 to 500 nM,"O=C(NOC[C@@H](O)CO)c1ccc(-c2c[nH]c3cc(F)ccc23)cc1 [Example 66, N-[(2S)-2,3-dihydroxypropoxy]-4-(6-fluoro-1H-indol-3-yl)benzamide]",–
> 10000,> 10000,< 1000,≤ 500 nM and 200 to 500 nM,"CC(CO)(CO)NC(=O)c1ccc(-c2c[nH]c3cc(F)ccc23)cc1 [Example 48, 4-(6-Fluoro-1H-indol-3-yl)-N-[2-hydroxy-1-(hydroxymethyl)-1-methyl-ethyl]benzamide]",–
5000 to 10000,> 10000,< 1000,≤ 500 nM and 200 to 500 nM,"C[C@H]1CNCC[C@H]1C(=O)Nc1ccc(-c2c[nH]c3cc(F)ccc23)cc1 [Example 110, (3R,4R)—N-[4-(6-fluoro-1H-indol-3-yl)phenyl]-3-methyl-piperidine-4-carboxamide]",–
5000 to 10000,5000 to 10000,< 1000,≤ 500 nM and 200 to 500 nM,"O=C(NCC(F)(F)F)c1c(F)cc(-c2c[nH]c3cc(F)ccc23)cc1F [Example 57, 2,6-Difluoro-4-(6-fluoro-1H-indol-3-yl)-N-(2,2,2-trifluoroethyl)benzamide]",–
> 10000,> 10000,< 1000,≤ 500 nM and 200 to 500 nM,"C[C@H](CO)NC(=O)c1ccc(-c2c[nH]c3cc(F)ccc23)cc1Cl [Example 51, 2-Chloro-4-(6-fluoro-1H-indol-3-yl)-N-[(1R)-2-hydroxy-1-methyl-ethyl]benzamide]",–
> 10000,> 10000,1000 to 5000,≤ 500 nM and 200 to 500 nM,"CC(=O)NCCNC(=O)c1ccc(-c2c[nH]c3cc(F)ccc23)cc1 [Example 113, N-(2-acetamidoethyl)-4-(6-fluoro-1H-indol-3-yl)benzamide]",–
> 10000,> 10000,< 1000,≤ 500 nM and 200 to 500 nM,"CC(C)(O)CNC(=O)c1ccc(-c2c[nH]c3cc(F)ccc23)cc1 [Example 13, 4-(6-Fluoro-1H-indol-3-yl)-N-(2-hydroxy-2-methyl-propyl)benzamide]",–
5000 to 10000,> 10000,< 1000,≤ 500 nM and 200 to 500 nM,"O=C(NC[C@@H]1CCCNC1)c1ccc(-c2c[nH]c3cc(F)ccc23)cc1 [Example 42, 4-(6-Fluoro-1H-indol-3-yl)-N-[[(3R)-3-piperidyl]methyl]benzamide]",–
> 10000,> 10000,< 1000,≤ 500 nM and 200 to 500 nM,"COCC(=O)Nc1ccc(-c2c[nH]c3cc(F)ccc23)cc1 [Example 27, N-[4-(6-fluoro-1H-indol-3-yl)phenyl]-2-methoxy-acetamide]",–
> 10000,> 10000,< 1000,≤ 500 nM and 200 to 500 nM,"CC(=O)Nc1ccc(-c2c[nH]c3cc(F)ccc23)cc1 [Example 4, N-[4-(6-Fluoro-1H-indol-3-yl)phenyl]acetamide]",–
> 10000,> 10000,< 1000,≤ 500 nM and 200 to 500 nM,"N[C@H]1CCC[C@@H](C(=O)Nc2ccc(-c3c[nH]c4cc(F)ccc34)cc2)C1 [Example 103, (1R,3S)-3-amino-N-[4-(6-fluoro-1H-indol-3-yl)phenyl]cyclohexanecarboxamide]",–
> 10000,> 10000,< 1000,≤ 200 nM,"O=C(N[C@H]1CCCNC1)c1c(F)cc(-c2c[nH]c3cc(F)ccc23)cc1F [Example 58, 2,6-Difluoro-4-(6-fluoro-1H-indol-3-yl)-N-[(3S)-3-piperidyl]benzamide]",–
> 10000,> 10000,1000 to 5000,≤ 500 nM and 200 to 500 nM,"COc1cc(-c2c[nH]c3cc(F)ccc23)ccc1C(=O)N[C@H](C)CO [Example 111, 4-(6-Fluoro-1H-indol-3-yl)-N-[(1R)-2-hydroxy-1-methyl-ethyl]-2-methoxy-benzamide]",–
> 10000,> 10000,< 1000,≤ 500 nM and 200 to 500 nM,"O=C(NC1COC1)c1ccc(-c2c[nH]c3cc(F)ccc23)cc1 [Example 26, 4-(6-Fluoro-1H-indol-3-yl)-N-(oxetan-3-yl)benzamide]",–
5000 to 10000,> 10000,< 1000,≤ 200 nM,"O=C(N[C@H]1CCCNC1)c1ccc(-c2c[nH]c3cc(F)ccc23)cc1F [Example 125, 2-Fluoro-4-(6-fluoro-1H-indol-3-yl)-N-[(3S)-3-piperidyl]benzamide]",–
> 10000,> 10000,< 1000,≤ 500 nM and 200 to 500 nM,"O=C(NCC(F)(F)F)c1ccc(-c2c[nH]c3cc(F)ccc23)cc1Cl [Example 53, 2-Chloro-4-(6-fluoro-1H-indol-3-yl)-N-(2,2,2-trifluoroethyl)benzamide]",–
5000 to 10000,> 10000,< 1000,≤ 200 nM,"O=C(NCCN1CCCC1)c1ccc(-c2c[nH]c3cc(F)ccc23)cc1Cl [Example 70, 2-Chloro-4-(6-fluoro-1H-indol-3-yl)-N-(2-pyrrolidin-1-ylethyl)benzamide]",–
> 10000,> 10000,< 1000,≤ 500 nM and 200 to 500 nM,"CN1CCC(O)(CNC(=O)c2ccc(-c3c[nH]c4cc(F)ccc34)cc2)CC1 [Example 63, 4-(6-Fluoro-1H-indol-3-yl)-N-[(4-hydroxy-1-methyl-4-piperidyl)methyl]benzamide]",–
5000 to 10000,> 10000,< 1000,≤ 200 nM,"C[C@@H](CO)NC(=O)c1ccc(-c2c[nH]c3cc(F)ccc23)cc1F [Example 123, 2-Fluoro-4-(6-fluoro-1H-indol-3-yl)-N-[(1S)-2-hydroxy-1-methyl-ethyl]benzamide]",–
> 10000,> 10000,< 1000,≤ 500 nM and 200 to 500 nM,"CN1CCN(CC(=O)Nc2ccc(-c3c[nH]c4cc(F)ccc34)cc2)CC1 [Example 109, N-[4-(6-fluoro-1H-indol-3-yl)phenyl]-2-(4-methylpiperazin-1-yl)acetamide]",–
> 10000,> 10000,< 1000,≤ 500 nM and 200 to 500 nM,"O=C(N[C@@H]1CCCC[C@H]1O)c1ccc(-c2c[nH]c3cc(F)ccc23)cc1 [Example 50, 4-(6-Fluoro-1H-indol-3-yl)-N-[(1R,2R)-2-hydroxycyclohexyl]benzamide]",–
> 10000,> 10000,< 1000,≤ 200 nM,"O=C(NCCN1CCCC1)c1ccc(-c2c[nH]c3cc(F)ccc23)cc1 [Example 77, 4-(6-Fluoro-1H-indol-3-yl)-N-(2-pyrrolidin-1-ylethyl)benzamide]",–
> 10000,> 10000,< 1000,≤ 500 nM and 200 to 500 nM,"O=C(N[C@H]1CCC[C@@H]1O)c1ccc(-c2c[nH]c3cc(F)ccc23)cc1 [Example 87, 4-(6-Fluoro-1H-indol-3-yl)-N-[(1S,2S)-2-hydroxycyclopentyl]benzamide]",–
5000 to 10000,> 10000,< 1000,≤ 200 nM,"CN(C)CCCNC(=O)c1ccc(-c2c[nH]c3cc(F)ccc23)cc1F [Example 124, N-[3-(dimethylamino)propyl]-2-fluoro-4-(6-fluoro-1H-indol-3-yl)benzamide]",–
> 10000,> 10000,< 1000,≤ 500 nM and 200 to 500 nM,"O=C(NCCN1C[C@H](O)[C@@H](O)C1)c1ccc(-c2c[nH]c3cc(F)ccc23)cc1Cl [Example 115, 2-Chloro-N-[2-[(3S,4S)-3,4-dihydroxypyrrolidin-1-yl]ethyl]-4-(6-fluoro-1H-indol-3-yl)benzamide]",–

SMILES,IC50 (CYP3A4) [nM],IC50 (CYP2D6) [nM],IC50 (Recombinant TDO) [nM],IC50 ([1]; read-out: IC50 on TDO in cells),IC50 ([1]; IC50 on TDO in cells)
"C[C@H](CO)NC(=O)c1ccc(-c2c[nH]c3cc(F)ccc23)cc1 [Example 14, 4-(6-fluoro-1H-indol-3-yl)-N-[(1R)-2-hydroxy-1-methyl-ethyl]benzamide]",> 10000,5000 to 10000,< 1000,–,≤ 500 nM and 200 to 500 nM
"O=C(Nc1ccc(-c2c[nH]c3cc(F)ccc23)cc1)C1CC12CCNCC2 (stereo not shown) [Example 97, N-[4-(6-Fluoro-1H-indol-3-yl)phenyl]-6-azaspiro[2.5]octane-2-carboxamide]",> 10000,> 10000,< 1000,≤ 500 nM and 200 to 500 nM,–
"O=C(N[C@H]1CN2CCC1CC2)c1ccc(-c2c[nH]c3cc(F)ccc23)cc1 [Example 133, 4-(6-Fluoro-1H-indol-3-yl)-N-[(3R)-quinuclidin-3-yl]benzamide]",> 10000,> 10000,< 1000,≤ 200 nM,–
